Measured values as given in US20220169654A1, “New Organic Compounds” (Servier Pharmaceuticals LLC, priority 2020, published 2022).

Columns and labels:
[1] = system: HCT116 MTAP−/−; experiment: Inhibition of cellular proliferation, 4 days, Cell Titer Glo, HCT116 MTAP−/−; type: cell-based; conditions: Homo sapiens, HCT-116, 96 h, IC50 bin with Max Inh., read-out: 4 Day Relative Growth Inhibition (MTAP −/−)
Procedure: (§1) Test compound impact on cancer cell growth was assessed by treating cancer cells with compound for 4 days and then measuring proliferation using an ATP-based cell proliferation readout (Cell Titer Glo, Promega Corporation).
(§2) In a typical assay an isogenic pair of HCT116 human colon carcinoma cell lines which vary only in MTAP deletion status (HCT116 MTAP+/+ and HCT116 MTAP−/−) were plated in 96-well dishes at appropriate cell density. Following 24 hours, cells were then treated with the candidate MAT2A inhibitor. Prior to addition to cells, the compound was first serially diluted in 100% DMSO, typically as a 3-fold serial dilution starting at 500× top dose with 10 dose points including DMSO only control. Compound was then transferred to a working stock plate in cell culture media by adding 5 μL of compound in DMSO to 495 μL of cell culture media. This working stock was then added to cells via a further 5-fold dilution, by adding 25 μL of working stock to 100 μL of cells in culture media. Following compound addition, cells were incubated at 37° C./5% CO2 for 4 days.
(§3) To measure inhibition of cellular proliferation, cells were allowed to equilibrate to room temperature for 30 minutes, and were then treated with 125 μL of Cell Titer Glo reagent. The plate was then covered with aluminum foil and shaken for 15 minutes to ensure complete mixing and full cell lysis. Luminescent signal was then measured using a plate-based luminometer Veritas version 1.9.2 using ATP standard curve to confirm assay reproducibility from run to run. This luminescence measure was converted to a proliferation index by subtracting from each data point the ATP luminescence signal measured from a bank (no cells) well and dividing by the ATP luminescence signal measured in 0.2% DMSO control well adjusted for signal in blank well. Compound activity was then represented as a percentage change in proliferation relative to a within-plate DMSO control against log 10 of compound concentration in molar (M) units.
(§4) Specific compounds disclosed herein were tested in the foregoing assay and they were determined to inhibit cellular proliferation with an IC50. See, Table 1 below.

[2] = target: T1, MAT2A homodimer (Homo sapiens, UniProt P31153); experiment: MAT2A inhibition (biochemical, liberated phosphate, PiColorLock Gold); conditions: recombinant MAT2A homodimer; IC50 bin with Max Inh.; read-out: Enzyme Inhibition Bin
T1 construct: inferred from Ni sepharose purification with imidazole elution; made in house; host or cells: Sf9 insect cells, baculovirus (Bac to Bac, pFASTBAC1)
T1 sequence (P31153 whole entry): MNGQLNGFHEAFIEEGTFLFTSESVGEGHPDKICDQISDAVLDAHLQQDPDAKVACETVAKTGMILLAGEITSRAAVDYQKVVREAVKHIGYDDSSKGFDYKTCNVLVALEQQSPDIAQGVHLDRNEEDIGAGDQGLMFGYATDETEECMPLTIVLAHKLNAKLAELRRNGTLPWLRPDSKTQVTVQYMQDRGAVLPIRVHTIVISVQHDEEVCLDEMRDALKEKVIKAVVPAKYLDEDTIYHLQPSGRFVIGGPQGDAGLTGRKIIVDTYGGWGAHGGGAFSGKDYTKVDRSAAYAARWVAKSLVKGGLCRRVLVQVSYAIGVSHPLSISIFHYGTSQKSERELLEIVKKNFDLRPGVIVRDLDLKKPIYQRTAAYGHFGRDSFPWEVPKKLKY
Summary of the method: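 Baculovirus/Sf9-expressed, Ni-purified MAT2A (4 μg/mL) preincubated with compound 60 min at 25 °C in Tris pH 8.0/KCl/MgCl2 buffer. Reaction started with 500 μM ATP and 400 μM L-methionine (substrate-mix concentrations), run 60 min at 25 °C. Phosphate measured colorimetrically against a phosphate standard curve to give IC50.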

[3] = system: SAM in HCT116 human colon carcinoma cell line with MTAP gene deleted (MTAP −/−); experiment: Cellular assay of target engagement (SAM), LC-MS/MS, 72 hrs; type: cell-based; conditions: HCT-116, IC50 bin with Max Inh., read-out: Cell 72 h SAM Inhibition (MTAP −/−)
Procedure: Measurement of MAT2A activity in cells was made by direct quantitation of the abundance of the product of its enzymatic activity, SAM. Cancer cells were treated with candidate MAT2A inhibitors for a suitable incubation period, and the cells were then lysed using a reagent which quenched any further enzyme activity. Soluble metabolites including SAM were collected and SAM itself was directly measured from the lysate using quantitative LC-MS/MS.
A typical assay was performed using an HCT116 human colon carcinoma cell line which was genetically engineered to delete the MTAP gene (commercially available from Horizon Discovery). This cell line was utilized because it was determined that loss of the MTAP gene predicts sensitivity to MAT2A inhibitors. Cells were plated in 96-well dishes at appropriate cell density. Following 24 hours, cells were then treated with the candidate MAT2A inhibitor. Prior to addition to cells, the compound was first serially diluted in 100% DMSO, typically as a 3-fold serial dilution starting at 500× top dose with 10 dose points including DMSO only control. Compound was then transferred to a working stock plate in cell culture media by adding 5 μL of compound in DMSO to 495 μL of cell culture media. This working stock was then added to cells via a further 5-fold dilution, by adding 25 μL of working stock to 100 μL of cells in culture media. Following compound addition, cells were incubated at 37° C./5% CO2 for 72 hrs.
To quantitate SAM levels following compound treatment, cells were gently washed once in ammonium carbonate buffer (75 mM at pH 7.4), placed on dry ice, and lysed with metabolite extraction buffer (80% cold methanol and 20% water (v/v) with acetic acid at 1M final concentration with 200 ng/mL deuterated d3-SAM as internal control). Following centrifugation at 4° C. at 3,200 rpm for 30 minutes, the supernatant was collected and stored at −80° C. until analysis by Liquid Chromatography with tandem Mass Spectrometry (LC-MS/MS). LC-MS/MS analysis was performed using an API6500 Mass Spectrometer (Sciex, Framingham, Mass., USA) operating in positive ion spray mode and equipped with a Waters UPLC Acquity (Waters, Milford, Mass., USA) BEH Amide column. Multiple Reaction Monitoring data was acquired for SAM and the d3-SAM standard, using a mass transition pair at m/z 399.2→250.1 and 402.2→250.1, respectively. In a typical LC-MS/MS analysis, the initial flow rate was 0.5 ml/min of 25% mobile phase A (acetonitrile and water at 5:95 (v/v) with 1% formic acid and 10 mM ammonium acetate) and 75% mobile phase B (acetonitrile and water at 95:5 (v/v) with 1% formic acid and 10 mM ammonium acetate), 0.2-0.5 minutes with 75%-35% mobile phase B, 25%-65% mobile phase A, at 0.5 min 65% mobile phase A and 35% mobile phase B, 1.0-1.1 minutes with 35%-75% mobile phase B, 65%-25% mobile phase A, at 1.1 min 25% mobile phase A and 75% mobile phase B with a total run time of 1.5 minutes.
Specific compounds disclosed herein were tested in the foregoing assay and they were determined to inhibit SAM with an IC50. See, Table 1 below.

[4] = system: HCT116 MTAP+/+; experiment: Inhibition of cellular proliferation, 4 days, Cell Titer Glo, HCT116 MTAP+/+; type: cell-based; conditions: Homo sapiens, HCT-116, 96 h, IC50 bin with Max Inh., read-out: 4 Day Relative Growth Inhibition (MTAP +/+)
Procedure: as §1, §2, §3, §4

Row | SMILES | IC50 [1] [µM] | IC50 [2] [µM] | IC50 [3] [µM] | IC50 [4] [µM]
1 | C[C@@H](O)c1cn(CC2CC2)c2c(-c3ccc(C4CC4)nc3)c(=O)n(-c3ccc4nn(C)cc4c3)nc12 [Example 249, (R)-5-(cyclopropylmethyl)-4-(6-cyclopropylpyridin-3-yl)-7-(1-hydroxyethyl)-2-(2-methyl-2H-indazol-5-yl)-2,5-dihydro-3H-pyrrolo[3,2-c]pyridazin-3-one] | < 0.1 | < 0.1 | < 0.1 | > 1
2 | Cn1cc2cc(-n3nc4c(C#CC(F)(F)F)cn(CC5CC5)c4c(-c4ccc(C5CC5)nc4)c3=O)ccc2n1 [Example 245, 5-(cyclopropylmethyl)-4-(6-cyclopropylpyridin-3-yl)-2-(2-methyl-2H-indazol-5-yl)-7-(3,3,3-trifluoroprop-1-yn-1-yl)-2,5-dihydro-3H-pyrrolo[3,2-c]pyridazin-3-one] | 0.1 to 1 | < 0.1 | > 1 | > 1
3 | Cn1cc2cc(-n3nc4ccn(CC5CC5)c4c(-c4ccc(Cl)cc4)c3=O)ccc2n1 [Example 112, 4-(4-chlorophenyl)-5-(cyclopropylmethyl)-2-(2-methyl-2H-indazol-5-yl)-2,5-dihydro-3H-pyrrolo[3,2-c]pyridazin-3-one] | < 0.1 | < 0.1 | < 0.1 | > 1
4 | Cn1cc2cc(-n3nc4c(C(N)=O)cn(CC5CC5)c4c(-c4ccc(C5CC5)cc4)c3=O)ccc2n1 [Example 166, 5-(cyclopropylmethyl)-4-(4-cyclopropylphenyl)-2-(2-methyl-2H-indazol-5-yl)-3-oxo-3,5-dihydro-2H-pyrrolo[3,2-c]pyridazine-7-carboxamide] | < 0.1 | < 0.1 | < 0.1 | > 1
5 | Cn1cc2cc(-n3nc4c(c(-c5ccc(C6CC6)nc5)c3=O)n(CC3CC3)c(=O)n4C)ccc2n1 [Example 198, 5-(cyclopropylmethyl)-4-(6-cyclopropylpyridin-3-yl)-7-methyl-2-(2-methyl-2H-indazol-5-yl)-2,7-dihydro-3H-imidazo[4,5-c]pyridazine-3,6(5H)-dione] | < 0.1 | < 0.1 | < 0.1 | > 1
6 | CN1CCOc2ccc(-n3nc4ccn(CC5CC5)c4c(-c4ccc(OC(F)F)cc4)c3=O)cc21 [Example 227, 5-(cyclopropylmethyl)-4-(4-(difluoromethoxy)phenyl)-2-(4-methyl-3,4-dihydro-2H-benzo[b][1,4]oxazin-6-yl)-2,5-dihydro-3H-pyrrolo[3,2-c]pyridazin-3-one] | < 0.1 | < 0.1 | < 0.1 | 0.1 to 1
7 | Cn1cc2cc(-n3nc4c(CC#N)cn(CC5CC5)c4c(-c4ccc(C5CC5)nc4)c3=O)ccc2n1 [Example 259, 2-(5-(cyclopropylmethyl)-4-(6-cyclopropylpyridin-3-yl)-2-(2-methyl-2H-indazol-5-yl)-3-oxo-3,5-dihydro-2H-pyrrolo[3,2-c]pyridazin-7-yl)acetonitrile] | < 0.1 | < 0.1 | < 0.1 | > 1
8 | Cn1cc2cc(-n3nc4c(C#N)cn(CC5CC5)c4c(-c4ccc(OC(F)F)cc4)c3=O)ccc2n1 [Example 102, 5-(cyclopropylmethyl)-4-(4-(difluoromethoxy)phenyl)-2-(2-methyl-2H-indazol-5-yl)-3-oxo-3,5-dihydro-2H-pyrrolo[3,2-c]pyridazine-7-carbonitrile] | < 0.1 | < 0.1 | < 0.1 | > 1
9 | CNCc1cn(CC2CC2)c2c(-c3ccc(C4CC4)nc3)c(=O)n(-c3ccc4nn(C)cc4c3)nc12 [Example 267, 5-(cyclopropylmethyl)-4-(6-cyclopropylpyridin-3-yl)-2-(2-methyl-2H-indazol-5-yl)-7-((methylamino)methyl)-2,5-dihydro-3H-pyrrolo[3,2-c]pyridazin-3-one] | 0.1 to 1 | < 0.1 | 0.1 to 1 | > 1
10 | Cn1cc2cc(-n3nc4c(F)cn(CC5CC5)c4c(-c4ccc(C5CC5)nc4)c3=O)ccc2n1 [Example 235, 5-(cyclopropylmethyl)-4-(6-cyclopropylpyridin-3-yl)-7-fluoro-2-(2-methyl-2H-indazol-5-yl)-2,5-dihydro-3H-pyrrolo[3,2-c]pyridazin-3-one] | < 0.1 | < 0.1 | < 0.1 | > 1
11 | Cn1cc2cc(-n3nc4ncn(CC5CC5)c4c(-c4ccc(OC(F)F)nc4)c3=O)ccc2n1 [Example 189, 5-(cyclopropylmethyl)-4-(6-(difluoromethoxy)pyridin-3-yl)-2-(2-methyl-2H-indazol-5-yl)-2,5-dihydro-3H-imidazo[4,5-c]pyridazin-3-one] | 0.1 to 1 | < 0.1 | 0.1 to 1 | > 1
12 | [2H]C([2H])([2H])Oc1ccc(-c2c(=O)n(-c3ccc4nn(C)cc4c3)nc3c(C(=O)NC)cn(CC4CC4)c23)cc1 [Example 174, 5-(cyclopropylmethyl)-4-(4-(methoxy-d3)phenyl)-N-methyl-2-(2-methyl-2H-indazol-5-yl)-3-oxo-3,5-dihydro-2H-pyrrolo[3,2-c]pyridazine-7-carboxamide] | < 0.1 | < 0.1 | < 0.1 | 0.1 to 1
13 | Cn1cc2cc(-n3nc4c(c(-c5ccc(OC(F)F)cc5)c3=O)n(CC3CC3)c(=O)n4C)ccc2n1 [Example 196, 5-(cyclopropylmethyl)-4-[4-(difluoromethoxy)phenyl]-7-methyl-2-(2-methyl-2H-indazol-5-yl)-2H,3H,5H,6H,7H-imidazolidino[4,5-c]pyridazine-3,6-dione] | < 0.1 | < 0.1 | < 0.1 | 0.1 to 1
14 | Cn1cc2cc(-n3nc4cnn(CC5CC5)c4c(-c4ccc(C5CC5)nc4)c3=O)ccc2n1 [Example 219, 1-(cyclopropylmethyl)-7-(6-cyclopropylpyridin-3-yl)-5-(2-methyl-2H-indazol-5-yl)-1,5-dihydro-6H-pyrazolo[4,3-c]pyridazin-6-one] | 0.1 to 1 | < 0.1 | 0.1 to 1 | 0.1 to 1
